Here are results for 5 compounds from patent US20130266526A1, “DIHYDROXYFUMARIC ACID DERIVATIVES AND THE USE THEREOF FOR SKIN LIGHTENING” (MERCK PATENT GMBH, priority 2010, published 2013).

“Also recorded” adds a separate entry of the source.

Experiment [1] deals with B16V mouse melanoma cells. As to the kind of experiment: B16 V mouse melanoma cell test (melanin content after alpha-MSH stimulation). In kind it is cell-based. The following applies: for Relative melanin content in %: DMSO control = 100, alpha-MSH 10^-8 M, absorption 405 nm. The protocol: B16V mouse melanoma cells (manufacturer: DSMZ; Article No.: ACC370) are transferred into RPMI medium (Invitrogen, Article No.: 31870), to which 10% of FBS (foetal bovine serum; Invitrogen, Article No.: 10499044), 2 mM L-glutamine (Invitrogen, Article No: 25030) and 1 mM sodium pyruvate (Invitrogen, Article No.: 11360) had additionally been added, and incubated at 37° C. and 5% CO2 for 72 h. The medium is separated off, and the cells are washed once with 10 ml of DPBS (Dulbecco's phosphate-buffered salines; Invitrogen, Article No.: 14190), and the medium is subsequently removed by suction. 1 ml of HyQtase cell detachment solution (Hyclone, Article No.: SV30030.01) is added to the cells. The bottle is swirled a number of times, and the HyQtase cell detachment solution is subsequently removed by suction. The cells are then incubated in the incubator at 37° C. and 5% CO2 for 5 min. The cells are taken up in the modified RPMI medium (see above), and the cell count is determined. To this end, the cells are stained with Trypan Blue and counted in a Neubauer counting chamber. The cells are subsequently sown out again in the modified RPMI medium (see above) in a defined cell count of 80,000 cells per well (6-well clear plate, TCT, PS (Nunc)).
The cells are incubated at 37° C. and 5% CO2 for 24 h, the medium is then removed. 1980 μl of the dilution of the respective substance to be tested are subsequently added. For this substance dilution, the substance is dissolved in DMSO and subsequently filtered through a sterile filter (0.2 μm, Millipore, Article No. SLLG013SL). The solution is then diluted with the modified RPMI medium (see above, but in this case the FBS content is only 5%) in such a way that the final concentration of the substance dilution has the desired final concentration as shown in Table 1.
20 μl of an alpha-MSH solution (alpha-melanocyte-stimulating hormone, DMSO, Sigma, Article No.: D2650) are then added, so that the alpha-MSH concentration in the well is 10^−8 M. The plate is subsequently incubated again at 37° C. and 5% CO2 for 24 h. The process described in this section is repeated a further twice in total.
After the final incubation period, the medium is removed by suction, and the cells are washed with 1000 μl of DPBS (Invitrogen, Article No.: 14190). The medium is again removed by suction. […] of HyQtase cell detachment solution (Hyclone, Article No.: SV30030.01) are added to the cells. The 6-well plate is swirled a number of times, and the HyQtase cell detachment solution is subsequently removed by suction. The cells are then incubated in the incubator at 37° C. and 5% CO2 for 5 min. The cells are taken up in 1.5 ml of DPBS (Invitrogen, Article No.: 14190) and transferred into a cup (SARSTEDT, Ref. 72.692.005). The cell count is subsequently determined. To this end, the cells are stained with Trypan Blue and counted in a Neubauer counting chamber. The cells centrifuged for 1 min at 3500 g. The pellets obtained are photographed, and the supernatant is subsequently removed by suction. The pellets are dissolved in 1 ml of 1N NaOH at 80° C. for 1 h and then cooled to RT. Four times 200 μl per cup (as quadruple determination) are subsequently pipetted into a 96-well plate (VWR, Article No.: 4100636981), and the absorption at a wavelength of 405 nm is determined (Safire, Tecan). The content of melanin can be determined in this way by means of a calibration line.

In a further experiment the test system is melanin. Particulars: substance alone; Example 5 of WO 01/66105 A1; cited from earlier work.

For the compound `O=C1O[C@H]([C@@H](O)CO)C(O)=C1O` [Ascorbic acid], in experiment [1] (3 mM), the “Relative melanin content in %” value turned out to be 77.4%.
Consider `O.O.O=C(O)/C(O)=C(\O)C(=O)O` [Dihydroxyfumaric acid dihydrate], for which the “Relative melanin content in %” value in experiment [1] (0.5 mM) was found to be 13.4%. Moreover, in experiment [1] (comparison of the working example (Table 1), dihydrate), the “skin-lightening action in comparison with known active compounds” value is “exceeds the action of lactic acid, glycolic acid and even kojic acid by a multiple; also recorded: higher compared with the hydroxy acids lactic acid and glycolic acid”.
`O=C(O)CO` [Glycolic acid]: the “Relative melanin content in %” value in experiment [1] (0.5 mM) is 67.3%.
In the case of `O=c1cc(CO)occ1O` [Kojic acid], in experiment [1] (1 mM), the “Relative melanin content in %” value was found to be 59%.
Turning to `CC(O)C(=O)O` (stereo not shown) [Lactic acid], the “Relative melanin content in %” value in experiment [1] (11.1 mM) turned out to be 57.8%. For the same compound, the melanin-reducing action in the experiment on melanin is reported as 40%.
